Data reported in patent US6495376B1, “Methods and compositions for regulating protein-protein interactions” (Beth Israel Deaconess Medical Center, priority 1999, dated 2002).
“Also recorded” adds a separate entry of the source.

How the values were obtained:
[1] = tested on: mitotically phosphorylated Cdc25C; experiment: GST pull down of phosphorylated Cdc25C and CIP dephosphorylation; assay type: binding; conditions: for protection of bound Cdc25C from dephosphorylation by CIP: Cdc25C precipitated on GST beads, then CIP; for binding to Cdc25C (in words): mitotic versus interphase phosphorylated form
Description: To confirm that Nedd4 WW-domains bind a specific phosphoprotein in a phosphorylation-dependent manner interactions between Nedd4 WW-domains and Cdc25C were examined. To various degrees, all three Nedd4 WW-domains bound the mitotically phosphorylated form, but not the interphase phosphorylated form of both HeLa Cdc25C and in vitro synthesized Xenopus Cdc25C. […] The Kd values for the phosphopeptides were also lower than those for the Pro-rich peptide that was thought to be a Nedd4 WW-domain-binding site (Table 1) (Chen, H. I., et al., Proc. Natl. Acad. Sci. USA 92:7819 (1995); Staub, O., et al., EMBO J. 15:2371 (1996); Bedford, M. J., et al., EMBO J., 16:2376 (1997)).
Interactions between the WW-domain of Pin1 and specific phosphorylated ligands were examined. To detect phosphorylation-dependent interaction, Cdc25C, Plk1 and Pin1 ligands, were synthesized by in vitro transcription and translation in the presence of ^35S-Met and incubated with Xenopus interphase or mitotic extracts or mitotic extracts followed by treatment with calf intestine phosphatase (M+CIP). Protein complexes were separated on SDS-gels either directly (input) or first subjected to GST pull down with the N-terminal WW-domain (amino acids 1-54) or C-terminal PPIase domain (amino acids 47-163) or the entire Pin1 protein (Shen, M. et al., Genes & Dev 12:706 (1998)). The labeled protein-GST bead complexes were washed extensively and bound proteins analyzed by SDS-PAGE and autoradiography using standard techniques.
To determine whether WW-domain binding protects dephosphorylation of its targets ^35S labeled (His)6 epitope tagged Cdc25C was phosphorylated by mitotic extracts and precipitated by GST fusion protein beads or Ni-NTA beads. The isolated Cdc25C was then incubated with control buffer or CIP, followed by separation on SDS-containing gels and autoradiography.

phosphorylated tau = experiment: GST-Pin1 pulldown of tau; assay type: binding; conditions: for binding to Cdc2 phosphorylated tau: tau phosphorylated by Cdc2 in vitro
Sequence of phosphorylated tau (P10636 45-216 isoform P10636-2 limits assumed): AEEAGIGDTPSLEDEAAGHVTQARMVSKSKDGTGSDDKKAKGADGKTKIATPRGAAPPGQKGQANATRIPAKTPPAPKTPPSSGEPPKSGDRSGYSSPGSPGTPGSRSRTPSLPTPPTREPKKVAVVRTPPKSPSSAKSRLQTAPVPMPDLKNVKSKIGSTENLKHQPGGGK
Description: Pin1 binds and regulates the function of a defined subset of mitotic phosphoproteins by interacting with conserved phosphorylated Ser/Thr-Pro motifs that are also recognized by MPM-2, a mitosis-specific, phosphorylation-dependent monoclonal antibody (mAb) (Yaffe, M. B. et al., Science 278:1957-1960 (1997); Shen, M. et al., Genes Dev. 12:706-720 (1 998)). Tau is an MPM-2 antigen phosphorylated on multiple Ser/Thr-Pro motifs during mitosis (Illenberger, S. et al., Mol Biol Cell 9:1495-1512 (1998)). Experiments were undertaken to determine whether Pin1 binds tau. Tau isoform was either synthesized by in vitro transcription and translation in the presence of ^35S-Met or produced in bacteria as an N-terminal His-tagged protein, followed by purification using NTA-Ni columns (Yaffe, M. B. et al., Science 278:1957-1960 (1997); Shen, M. et al., Genes Dev. 12:706-720 (1998)). To generate interphase- and mitosis-specific phosphorylated form of tau, tau was incubated with Xenopus interphase and mitotic extracts, respectively (Shen, M. et al., Genes Dev. 12:706-720 (1998)). To prepare Cdc2 phosphorylated tau, purified recombinant tau was incubated with purified cyclin B/Cdc2 (UBI) for 6 to 12 hr at room temperature in a buffer containing 500 μM cold ATP, plus trace [^32P]-ATP in some experiments, (Vincent, I. et al., J Neurosci 17:3588-3598 (1997)).
Pin1 interactions with tau in AD brains were examined using a GST-Pin1 pulldown assay (Shen, M. et al., Genes Dev. 12:706-720 (1998)). Glutathione beads containing GST or GST-Pin1 were incubated with normal or AD brain extracts, or PHFs purified (Vincent, I. J. and Davies, P. Proc Natl Acad Sci USA 89:2878-2882 (1992)), and proteins associated with the beads were subjected to immunoblotting analysis using CP27, which recognizes all forms of tau. Recombinant and mutant Pin1 proteins were produced as N-terminal GST or His-tagged fusion proteins (Shen, M. et al., Genes Dev. 12:706-720 (1998)). PHFs were purified by immunoaffinity chromatography (Vincent, I. J. and Davies, P. Proc Natl Acad Sci USA 89:2878-2882 (1992)).
To determine whether Pin1 interacts with pT231-tau, GST-Pin1 beads were used to isolate tau from AD brain extracts or PHFs and T231 phosphorylation detected using CP9. Tau isolated by Pin1 beads was strongly immunoreactive with CP9. […] Thus, Pin1 binds pT231-tau through its WW-domain.

WFYSPFLE = experiment: Fluorescence anisotropy binding to fluorescein-labeled nonphosphorylated control peptide; conditions: for WFYSPFLE Kd: nonphosphorylated peptide

Substance	protection of bound Cdc25C from dephosphorylation by CIP [1]	binding to Cdc25C (in words) [1]	binding to Cdc2 phosphorylated tau (phosphorylated tau)	Kd (μM) Pintide nonphosphorylated WFYSPFLE (WFYSPFLE; GST-WW-domains, N.B., not binding detected)	WFYSPFLE Kd (WFYSPFLE)	binding to tau of brain extracts (phosphorylated tau; AD brain extracts, PHFs or age-matched normal brain extracts)	binding to tau incubated with Xenopus extracts (phosphorylated tau; interphase or mitotic extracts)
Pin1 WW-domain: N-terminal WW-domain (amino acids 1-54) of Pin1 (MADEEKLPPGWEKRMSRSSGRVYYFNHITNASQWERPSGNSSSGGKNGQGEPAR; left off: a dimerising Fc or GST)	CIP failed to dephosphorylate Cdc25C	bound the phosphorylated Cdc25C in mitotic cell extracts, but not interphase extracts	bound Cdc2 phosphorylated tau	N.B.	No binding was detected; also recorded: Not binding	–	–
Pin1: wild-type human prolyl isomerase (PPIase) Pin1 with N-terminal WW-domain; tag cleaved in Table 2	CIP failed to dephosphorylate Cdc25C	bound the phosphorylated Cdc25C in mitotic cell extracts, but not interphase extracts	bound Cdc2 phosphorylated tau	–	No binding was detected; also recorded: Not binding	did not bind tau in age-matched normal brain extracts	did bind tau that was phosphorylated by mitotic extracts
